PubChem BioAssay AID248 (DTP/NCI, 2004)
Toxic doses and inconclusive results are not listed. Cut-off read from the data, not from the text of the source: active = T/C of 150% or more; inactive = T/C below 125%.

System: L1210 leukemia ip in BDF1 mice, survival T/C
Test: NCI In Vivo Anticancer Drug Screen. Data for tumor model L1210 Leukemia (intraperitoneal) in B6D2F1 (BDF1) mice
Settings: endpoint: mean survival time, higher = longer survival
Outline: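 Mice bearing the transplanted tumor received compound or vehicle. Survival of the treated group was divided by that of the vehicle-treated control group to give the ratio.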

[1] = dose: 500.0 mg/kg/injection, schedule: Q01DX Z (ip), vehicle: saline
[2] = dose: 25.0 mg/kg/injection, schedule: Q01DX009 (ip), vehicle: saline
[3] = dose: 50.0 mg/kg/injection, schedule: Q01DX009 (ip), vehicle: saline
[4] = dose: 100.0 mg/kg/injection, schedule: Q01DX001 (ip), vehicle: saline
[5] = dose: 100.0 mg/kg/injection, schedule: Q01DX009 (ip), vehicle: saline
[6] = dose: 100.0 mg/kg/injection, schedule: Q04DX003 (ip), vehicle: saline
[7] = dose: 100.0 mg/kg/injection, schedule: Q01DX009 (ip), vehicle: saline with Tween-80
[8] = dose: 100.0 mg/kg/injection, schedule: Q04DX003 (ip), vehicle: saline with Tween-80
[9] = dose: 200.0 mg/kg/injection, schedule: Q01DX009 (ip), vehicle: saline with Tween-80
[10] = dose: 400.0 mg/kg/injection, schedule: Q01DX009 (ip), vehicle: saline with Tween-80
[11] = dose: 200.0 mg/kg/injection, schedule: Q04DX003 (ip), vehicle: saline
[12] = dose: 400.0 mg/kg/injection, schedule: Q04DX003 (ip), vehicle: saline
[13] = dose: 200.0 mg/kg/injection, schedule: Q01DX001 (ip), vehicle: carboxymethylcellulose (CMC)
[14] = dose: 400.0 mg/kg/injection, schedule: Q01DX001 (ip), vehicle: carboxymethylcellulose (CMC)
[15] = dose: 200.0 mg/kg/injection, schedule: Q01DX009 (ip), vehicle: saline

Measured: T/C

NC(N)=N/N=C/c1ccccc1C(=O)O
inactive: dose: 62.5 mg/kg/injection, schedule: Q01DX Z (ip), vehicle: saline 106 % of control | dose: 125.0 mg/kg/injection, schedule: Q01DX Z (ip), vehicle: saline 106 % of control | dose: 250.0 mg/kg/injection, schedule: Q01DX Z (ip), vehicle: saline 101 % of control | [1] 100 % of control

CCN(CC)c1ccc(N=Nc2ccc(S(=O)(=O)O)cc2)cc1
inactive: [2] 97 % of control | [3] 91 % of control | [4] 88 % of control | [5] 100 % of control

CC(C)N1CN(C(C)C)CN(C(C)C)C1
inactive: [2] 103 % of control | dose: 25.0 mg/kg/injection, schedule: Q04DX003 (ip), vehicle: saline 99 % of control | [3] 93 % of control | dose: 50.0 mg/kg/injection, schedule: Q04DX003 (ip), vehicle: saline 99 % of control | [6] 87 % of control

CCOC(=O)C12CC=CC(CCC1)C2=O (stereo not drawn) (tested in a mixture with another compound)
inactive: [7] 112 % of control | [8] 103 % of control | [9] 101 % of control | dose: 200.0 mg/kg/injection, schedule: Q04DX003 (ip), vehicle: saline with Tween-80 102 % of control | [10] 101 % of control | dose: 400.0 mg/kg/injection, schedule: Q04DX003 (ip), vehicle: saline with Tween-80 105 % of control

CC(C)(C)OC(=O)NN=C1CCC(C(C)(C)C)CC1 (stereo not drawn)
inactive: dose: 100.0 mg/kg/injection, schedule: Q04DX003 (ip), vehicle: acetone 98 % of control | dose: 200.0 mg/kg/injection, schedule: Q04DX003 (ip), vehicle: acetone 96 % of control | dose: 400.0 mg/kg/injection, schedule: Q04DX003 (ip), vehicle: acetone 93 % of control

COC(C#N)C(=N)CC#N (stereo not drawn)
inactive: dose: 9.5 mg/kg/injection, schedule: Q01DX001 (ip), vehicle: saline 107 % of control | dose: 19.0 mg/kg/injection, schedule: Q01DX001 (ip), vehicle: saline 101 % of control

CCC(O)(CC)C(=O)Nc1ccccc1
inactive: dose: 50.0 mg/kg/injection, schedule: Q01DX001 (ip), vehicle: saline 98 % of control | [4] 104 % of control | dose: 200.0 mg/kg/injection, schedule: Q01DX001 (ip), vehicle: saline 96 % of control | dose: 400.0 mg/kg/injection, schedule: Q01DX001 (ip), vehicle: saline 102 % of control

CN(Cc1ccc2nc(N)[nH]c(=O)c2c1)c1ccc(C(=O)NC(CCC(=O)O)C(=O)O)cc1 (stereo not drawn)
inactive: dose: 50.0 mg/kg/injection, schedule: Q01DX009 (ip), vehicle: water 104 % of control | dose: 100.0 mg/kg/injection, schedule: Q01DX009 (ip), vehicle: water 113 % of control | dose: 100.0 mg/kg/injection, schedule: Q04DX003 (ip), vehicle: water 108 % of control | dose: 200.0 mg/kg/injection, schedule: Q04DX003 (ip), vehicle: water 100 % of control

CC1C=CCP1(C)=O (stereo not drawn)
inactive: [7] 91 % of control | [9] 96 % of control | [10] 94 % of control

NC(=O)C[n+]1cccc(C(N)=O)c1
inactive: [6] 97 % of control | [11] 101 % of control | [12] 101 % of control

O=C(O)c1c(Br)c(Br)c(Br)c(Br)c1C(=O)Nc1cccc(C(F)(F)F)c1
inactive: dose: 100.0 mg/kg/injection, schedule: Q01DX009 (ip), vehicle: Klucel (hydroxypropylcellulose) (HPC) 107 % of control | dose: 200.0 mg/kg/injection, schedule: Q01DX009 (ip), vehicle: Klucel (hydroxypropylcellulose) (HPC) 108 % of control | dose: 400.0 mg/kg/injection, schedule: Q01DX009 (ip), vehicle: Klucel (hydroxypropylcellulose) (HPC) 107 % of control

C1CCC2[N-]CC3CCCCC3[N-]CC3CCCCC3[N-]CC3CCCCC3[N-]CC2C1.[Ni+2].[O-][Cl+3]([O-])([O-])O (stereo not drawn)
inactive: dose: 12.5 mg/kg/injection, schedule: Q04DX002 (ip), vehicle: saline with Tween-80 101 % of control | dose: 25.0 mg/kg/injection, schedule: Q04DX002 (ip), vehicle: saline with Tween-80 108 % of control | dose: 50.0 mg/kg/injection, schedule: Q04DX002 (ip), vehicle: saline with Tween-80 111 % of control

O=C(Nc1ccc(CC2=NCCN2)cc1)c1cccc(C(=O)Nc2ccc(CC3=NCCN3)cc2)c1
inactive: dose: 6.5 mg/kg/injection, schedule: Q01DX Z (ip), vehicle: carboxymethylcellulose (CMC) 100 % of control | dose: 9.7 mg/kg/injection, schedule: Q01DX Z (ip), vehicle: carboxymethylcellulose (CMC) 93 % of control | dose: 14.6 mg/kg/injection, schedule: Q01DX Z (ip), vehicle: carboxymethylcellulose (CMC) 94 % of control | dose: 22.0 mg/kg/injection, schedule: Q01DX Z (ip), vehicle: carboxymethylcellulose (CMC) 94 % of control | dose: 22.2 mg/kg/injection, schedule: Q01DX Z (ip), vehicle: carboxymethylcellulose (CMC) 95 % of control

O=C(O)C1(Br)CC2CC1C1C2C2(Cl)C(Cl)=C(Cl)C1(Cl)C2(Cl)Cl (stereo not drawn)
inactive: dose: 75.0 mg/kg/injection, schedule: Q01DX001 (ip), vehicle: other 96 % of control | dose: 150.0 mg/kg/injection, schedule: Q01DX001 (ip), vehicle: other 96 % of control | dose: 300.0 mg/kg/injection, schedule: Q01DX001 (ip), vehicle: other 96 % of control

CCCCCCC(=C/c1ccccc1)/C=N/NC(=O)c1ccc[n+](C)c1
inactive: dose: 25.0 mg/kg/injection, schedule: Q04DX003 (ip), vehicle: saline with Tween-80 93 % of control | dose: 50.0 mg/kg/injection, schedule: Q04DX003 (ip), vehicle: saline with Tween-80 116 % of control | [8] 104 % of control

c1ccc(-c2cnsc2)cc1
inactive: [13] 95 % of control | [14] 100 % of control

Cc1ccc(S(=O)(=O)N(CCCc2c(C)nc(N)nc2N)c2ccccc2)cc1
inactive: dose: 100.0 mg/kg/injection, schedule: Q04DX002 (ip), vehicle: saline 110 % of control | dose: 200.0 mg/kg/injection, schedule: Q04DX002 (ip), vehicle: saline 104 % of control | dose: 400.0 mg/kg/injection, schedule: Q04DX002 (ip), vehicle: saline 91 % of control

O=C(/C=C\c1ccccc1)Nc1c(Cl)cc(Cl)cc1Cl
inactive: dose: 100.0 mg/kg/injection, schedule: Q04DX002 (ip), vehicle: Klucel (hydroxypropylcellulose) (HPC) 91 % of control | dose: 200.0 mg/kg/injection, schedule: Q04DX002 (ip), vehicle: Klucel (hydroxypropylcellulose) (HPC) 107 % of control | dose: 400.0 mg/kg/injection, schedule: Q04DX002 (ip), vehicle: Klucel (hydroxypropylcellulose) (HPC) 95 % of control

Nc1ncnc2c1ncn2CCCCl
inactive: [3] 100 % of control | [5] 100 % of control | [6] 90 % of control | [15] 92 % of control | [11] 106 % of control

CCCCCCCCCCCCCC(=O)OCC(C)C
inactive: dose: 222.0 mg/kg/injection, schedule: Q01DX Z (ip), vehicle: saline 94 % of control | dose: 333.0 mg/kg/injection, schedule: Q01DX Z (ip), vehicle: saline 90 % of control | [1] 94 % of control

COC(=O)C(NC(=O)CCl)C(=O)OC
inactive: dose: 100.0 mg/kg/injection, schedule: Q04DX003 (ip), vehicle: other 96 % of control | dose: 200.0 mg/kg/injection, schedule: Q04DX003 (ip), vehicle: other 93 % of control | dose: 400.0 mg/kg/injection, schedule: Q04DX003 (ip), vehicle: other 94 % of control

O=C(O)C(Sc1ccccc1)c1ccccc1 (stereo not drawn)
inactive: dose: 100.0 mg/kg/injection, schedule: Q04DX002 (ip), vehicle: gum acacia 100 % of control | dose: 200.0 mg/kg/injection, schedule: Q04DX002 (ip), vehicle: gum acacia 100 % of control | dose: 400.0 mg/kg/injection, schedule: Q04DX002 (ip), vehicle: gum acacia 104 % of control

O=S(=O)(O)C1(O)CCCCC1
inactive: [3] 99 % of control | [5] 93 % of control | [6] 102 % of control | [15] 103 % of control | [11] 100 % of control | dose: 400.0 mg/kg/injection, schedule: Q01DX009 (ip), vehicle: saline 113 % of control | [12] 96 % of control

ClCCN(CCCl)c1ccc(-c2csc(COc3ccccc3)n2)cc1
inactive: dose: 100.0 mg/kg/injection, schedule: Q01DX001 (ip), vehicle: carboxymethylcellulose (CMC) 102 % of control | [13] 96 % of control | [14] 91 % of control

CCOC(=O)C(=CNc1cccc(C)n1)C(=O)OCC
inactive: [7] 100 % of control | [9] 102 % of control | [10] 100 % of control

O=[N+]([O-])c1ccc(/C=C/C=C/c2ccccc2)cc1
inactive: [7] 105 % of control | [9] 92 % of control | [10] 89 % of control
